Test results: patent publication US9464063B2, “Benzo [B] [1,4] oxazin derivatives as calcium sensing receptor modulators” (LUPIN ATLANTIS HOLDINGS SA, priority 2011, dated 2016)
Counter-ions that a name gives are not always drawn.

Target: T1, Calcium sensing receptor (hCaSR) (Homo sapiens, UniProt P41180)
T1 construct: expressed in transfected cells
T1 sequence (P41180 20-1078): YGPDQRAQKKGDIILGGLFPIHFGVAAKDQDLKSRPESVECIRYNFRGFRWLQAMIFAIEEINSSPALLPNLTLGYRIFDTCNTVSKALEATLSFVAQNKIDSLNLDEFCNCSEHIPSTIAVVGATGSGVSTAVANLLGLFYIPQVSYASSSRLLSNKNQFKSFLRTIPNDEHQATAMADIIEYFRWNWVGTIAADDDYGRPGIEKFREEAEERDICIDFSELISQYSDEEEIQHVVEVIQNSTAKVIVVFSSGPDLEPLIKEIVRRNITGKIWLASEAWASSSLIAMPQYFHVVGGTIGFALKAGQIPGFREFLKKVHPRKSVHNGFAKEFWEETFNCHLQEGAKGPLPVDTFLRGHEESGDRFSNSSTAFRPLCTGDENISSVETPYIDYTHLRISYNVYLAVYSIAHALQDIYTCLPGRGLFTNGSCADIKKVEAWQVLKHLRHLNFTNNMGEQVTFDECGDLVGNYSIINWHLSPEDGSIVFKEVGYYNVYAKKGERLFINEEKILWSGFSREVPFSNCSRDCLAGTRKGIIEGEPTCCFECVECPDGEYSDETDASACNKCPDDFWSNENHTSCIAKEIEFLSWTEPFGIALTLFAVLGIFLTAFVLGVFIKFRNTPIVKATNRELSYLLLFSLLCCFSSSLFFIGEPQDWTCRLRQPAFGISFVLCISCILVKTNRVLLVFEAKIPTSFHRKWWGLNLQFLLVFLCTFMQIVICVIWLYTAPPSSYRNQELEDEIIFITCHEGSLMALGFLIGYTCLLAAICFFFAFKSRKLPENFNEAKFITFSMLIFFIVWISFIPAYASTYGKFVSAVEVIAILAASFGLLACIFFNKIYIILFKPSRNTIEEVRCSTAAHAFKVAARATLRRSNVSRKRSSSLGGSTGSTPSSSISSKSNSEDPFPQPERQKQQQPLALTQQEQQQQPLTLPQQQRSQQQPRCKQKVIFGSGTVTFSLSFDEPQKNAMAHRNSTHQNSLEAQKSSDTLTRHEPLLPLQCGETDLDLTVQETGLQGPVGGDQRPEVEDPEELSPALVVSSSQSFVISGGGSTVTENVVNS
Assay: In-vitro assay of calcimimetics through modulation of calcium sensing receptor: increase in intracellular calcium [Ca2+]i, FLIPR
Assay type: cell-based
Details: stably transfected HEK293 cells expressing hCaSR; Fluo4NW dye; 0.3 mM CaCl2; 8-point assay; read-out: EC50 Range
Method: In-Vitro Assay Method of Calcimemtics Through Modulation of Calcium Sensing Receptor (CaSR):
The ability of the compounds to modulate Calcium sensing receptor is determined by measuring an increase in intracellular calcium [Ca^2+]i. Stably transfected HEK293 cells expressing hCaSR_pTriEx-3 hygro vector are developed. Cells are grown overnight on a 96-well plate to 80% confluency in Ham's F12 containing 20% FBS at 37° C., 5% CO2. Subsequently, cells are washed extensively with 20 mM HEPES buffer containing 126 mM NaCl, 1 mM MgCl2 and 4 mM KCl to remove serum components that might interfere with the assay. Cells are loaded with calcium sensing Fluo4NW dye in HEPES base buffer containing 0.1% BSA and 1 mg/ml glucose for 30 minutes to measure changes in intracellular calcium. The activities of the compounds are measured in FLIPR using 0.3 mM CaCl2 in 20 mM HEPES base buffer. The effectiveness of the compound to modulate receptor activity is determined by calculating the EC50 responses for that compound in an 8-point assay and plotted using GraphPad Prism 5.

Row | Structure (SMILES) | EC50
1 | COC(=O)c1ccc(N2CC(CN[C@H](C)c3cccc4ccccc34)Oc3ccccc32)cc1 (single isomer, unassigned) [Example 2a, hydrochloride] | 50 to 200 nM
2 | COC(=O)c1ccc(N2CC(CN[C@H](C)c3cccc4ccccc34)Oc3ccccc32)cc1 (single isomer, unassigned) [Example 2b, hydrochloride] | 20 to 50 nM
3 | CCOC(=O)c1c(C)ccc(N2CC(CN[C@H](C)c3cccc4ccccc34)Oc3ccccc32)c1C (single isomer, unassigned) [Example 24b] | 20 to 50 nM
4 | COC(=O)c1cc(N2CC(CN[C@H](C)c3cccc4ccccc34)Oc3ccccc32)ccc1C (single isomer, unassigned) [Example 31a] | 20 to 50 nM
5 | COC(=O)c1cc(N2CC(CN[C@H](C)c3cccc4ccccc34)Oc3ccccc32)ccc1C (single isomer, unassigned) [Example 31b] | < 20 nM
6 | COc1ccc(C(=O)O)cc1N1CC(CN[C@H](C)c2cccc3ccccc23)Oc2ccccc21 (single isomer, unassigned) [Example 55a, hydrochloride] | 50 to 200 nM
7 | Cc1c(C(=O)O)cccc1N1CC(CN[C@H](C)c2cccc3ccccc23)Oc2ccccc21 (single isomer, unassigned) [Example 58a, hydrochloride] | 20 to 50 nM
8 | C[C@@H](NCC1CN(c2ccc(C(F)(F)F)c(C(=O)O)c2)c2ccccc2O1)c1cccc2ccccc12 (single isomer, unassigned) [Example 60a, hydrochloride] | 20 to 50 nM
9 | Cc1cc(C(=O)O)cc(N2CC(CN[C@H](C)c3cccc4ccccc34)Oc3ccccc32)c1 (single isomer, unassigned) [Example 62a, hydrochloride] | 50 to 200 nM
10 | C[C@@H](NCC1CN(c2ccc(C(=O)O)c(C(F)(F)F)c2)c2ccccc2O1)c1cccc2ccccc12 (single isomer, unassigned) [Example 64b, hydrochloride] | < 20 nM
11 | C[C@@H](NCC1CN(c2ccc(O)c(C(=O)O)c2)c2ccccc2O1)c1cccc2ccccc12 (single isomer, unassigned) [Example 66a, hydrochloride] | 20 to 50 nM
12 | C[C@@H](NCC1CN(c2ccc(O)c(C(=O)O)c2)c2ccccc2O1)c1cccc2ccccc12 (single isomer, unassigned) [Example 66b, hydrochloride] | < 20 nM
13 | COc1ccc(N2CC(CN[C@H](C)c3cccc4ccccc34)Oc3ccccc32)cc1C(=O)O (single isomer, unassigned) [Example 67b, hydrochloride] | 50 to 200 nM
14 | C[C@@H](NCC1CN(c2cccc(CCC(=O)O)c2)c2ccccc2O1)c1cccc2ccccc12 (single isomer, unassigned) [Example 68b, hydrochloride] | 50 to 200 nM
15 | Cc1ccc(N2CC(CN[C@H](C)c3cccc4ccccc34)Oc3ccccc32)c(C)c1C(=O)O (single isomer, unassigned) [Example 70b, hydrochloride] | < 20 nM
16 | Cc1ccc(N2CC(CN[C@H](C)c3cccc4ccccc34)Oc3ccccc32)cc1C(=O)O (single isomer, unassigned) [Example 71b, hydrochloride] | < 20 nM
17 | Cc1cc(N2CC(CN[C@H](C)c3cccc4ccccc34)Oc3ccccc32)ccc1C(=O)O (single isomer, unassigned) [Example 73b, hydrochloride] | < 20 nM
18 | C[C@@H](NCC1CN(c2ccc(Cl)c(C(=O)O)c2)c2ccccc2O1)c1cccc2ccccc12 (single isomer, unassigned) [Example 75b, hydrochloride] | 50 to 200 nM
19 | Cc1ccc(N2CC(CN[C@H](C)c3cccc4ccccc34)Oc3ccccc32)cc1OCC(=O)O (single isomer, unassigned) [Example 76a, hydrochloride] | < 20 nM
20 | Cc1ccc(N2CC(CN[C@H](C)c3cccc4ccccc34)Oc3ccccc32)cc1OC(C)(C)C(=O)O (single isomer, unassigned) [Example 77a, hydrochloride] | 50 to 200 nM
